Measured values as given in patent publication US9363996B2, “Compositions and method for blocking ethylene response in field crops using 3-(cy-clopropyl-l-enyl)-propanoic salt” (Yissum Research Development Company of the Hebrew …, priority 2009, dated 2016).

How the values were obtained:
Winter wheat = experiment: Field experiment in wheat: seed yield and seed weight; type: in vivo, Winter wheat (Ttriticum aestivum, var. Galil); conditions: for yield increase over the control, hand-separated: g/100 spikes; for seed yield increase compared to the untreated control, mechanically thresh separated: g/plot
Description: Plant material and experimental design—Winter wheat (Ttriticum aestivum, var. Galil) was sown in December 2008 in a medium-heavy soil in the farm of the Volcani Center, Agricultural Research Organization, Bet-Dagan, Israel. Winter rainfall between October and March was 515 mm. The crop was raised without irrigation. The plants were sprayed twice with insecticide in November with ‘Tunex’ (one L/acre) and in December with ‘Oror Turbo’ (200 g/acre). The experiment started in mid-March, 2009. Six blocks were randomly selected, and each block was further randomly divided into four treatment plots of two square meters each (FIG. 67A—right and left). Two-meter-wide strips of untreated plants served as border lines between the blocks (FIG. 67A—center). The following treatments were applied: 1. control; 2. spraying WS-CPD at the ‘Milky’ stage I (30.3.09); 3. spraying WS-CPD at the ‘Milky’ stage II (17.4.09); 4. two successive WS-CPD sprays as above (30.3.09 and 17.4.09).
Treatments—The treatment solution of WS-CPD contained 120 μg mL^−1 of WS-CPD in 10 mM K-phosphate buffer (pH 7.6) and 0.1% of ‘Kinetic’ surfactant. Spraying (about 0.8 L/two square meters) was applied with a portable sprayer (ACL 7-L, Great Brittan). The controls were sprayed with the treatment solution without WS-CPD. The spraying was aimed to cover the upper part of the plants, from the second leaf below the ‘Flag leaf’ and up, covering the whole spike.
Determination of seed development—In order to follow the dynamics of seed development from ‘Milky’ stage I to seed maturity, groups of 200 spikes were sampled from the border strips. Samples were taken on 30.3.09 (‘Milky’ stage I), 17.4.09 (‘Milky’ stage II), and 19.5.09 (seed maturity). The spikes were brought to the laboratory and dried in an oven (60° C.) until complete dryness. After drying, the seeds were separated from each spike, counted, and their weight was recorded to determine the average seed weight for each spike. The number of spikes with the same average seed weight of each treatment was expressed as percent of total spike number.
Harvesting—At the termination of the experiment (19.5.09), when the seeds reached full maturity, the spikes from all six blocks were harvested, counted, and placed on tables in the greenhouse for 12 days to reach complete dryness (FIG. 67B).
Hand seed separation—One hundred dried spikes were randomly sampled of each plot (n=6) after harvesting. The seeds of each spike were separated (FIGS. 67C and D) and counted and their weight was determined. The seed weight of each spike was divided by the number of seeds per spike to determine the average seed weight of each spike. The number of spikes of each treatment with the same average seed weight was expressed as percent of total spike number.
Mechanical thresh seed separation—The remaining dry spikes of each experimental plot were counted and mechanically thresh separated (Kurt Pelz Co., Germany) from their glumes and chafes, and their dry weight was recorded (g/plot). For comparison of the yield weight of the controls between mechanical thresh and hand separation, 200 seeds from each method were randomly sampled.
Effect of WS-CPD on Yield—This effect of WS-CPD was studied by two ways: a) calculating the yield of each experimental plot (g/plot) and; b) calculating the yield dry weight of 100 spikes randomly selected in each experimental plot (g/100 spikes).

Solubility in water = type: physicochemical; conditions: 25° C.
Procedure: WS-CPD is highly soluble in water at 25° C. (≧400 mg mL^−1), FIG. 63. Upon heating, decomposition without melting occurs, beginning at 265-270° C.

[1] = WS-CPD 120 μg mL^−1 spray at 'Milky' stage I
[2] = WS-CPD 120 μg mL^−1 spray at 'Milky' stage II

In the case of `O=C([O-])CCC1=CC1.[Na+]` [WS-CPD, 3-cyclopropyl-1-enyl-propanoic sodium salt], the “yield increase over the control, hand-separated” value (Winter wheat; [1]) is reported as “about 15±2.6%”, the “seed yield increase compared to the untreated control, mechanically thresh separated” value (Winter wheat; [1]) is reported as “about 5%” and the “yield increase over the control, hand-separated” value (Winter wheat; [2]) is reported as “about 8%”. For the same compound, the “seed yield increase compared to the untreated control, mechanically thresh separated” value (Winter wheat; [2]) was about 8%, the “increase of seed weight” value (Winter wheat; one spray at 'Milky' stage I, hand-separated, mg/seed) was “about 15%” and the “distribution of seed weight at maturity versus control spikes” value (Winter wheat; sprayed at 'Milky' stage I, II or both) was “always significantly heavier”. For the same compound, the “yield, hand-separated” value (Winter wheat; spraying twice at 'Milky' stages I+II versus one spray at stage I) was “no advantage”, the “seed yield, mechanically thresh separated” value (Winter wheat; spraying twice at 'Milky' stages I+II versus spraying once) was “no advantage” and the solubility (Solubility in water) was at least 400 mg/mL.
